According to US7829575B2, “Methods for treating androgen receptor related disorders” (University of Cincinnati, priority 2006, dated 2010):
Read-outs that look alike come from different tables or passages of the source.

Columns and labels:
[1] = test system: LNCaP cells (mutant AR, H877A); test: LNCaP cell growth, MTT staining; assay type: cell-based; conditions: for inhibition at 10 µM: Homo sapiens, LNCaP, 96 h
Excerpt: (§1) Viable cells are stained with MTT (3-(4,5-dimethylthiazol-2-yl)-2,5-diphenyltetrazolium bromide). *, **, and *** designate p<0.05, <0.01, and 0.001, respectively, compared with controls.

AR = AR nuclear localization, immunostaining; assay type: cell-based; conditions: PC-3AR and LNCaP cells, SMEM, 20 μM, with or without 1 nM DHT, 2 h
Excerpt: AR nuclear translocation is a necessary step for AR action. […] AR in the cells were stained with an antibody to AR and detected with Texas Red-labeled secondary antibody. […] AR is translocated to the nuclei upon treatment with DHT. […] Thus, DL3 binds to AR.

LNCaP cells [2] = test: Cellular PSA and AR protein, western blotting; assay type: cell-based; conditions: 24 hr
Method: In FIG. 6, cellular PSA and AR are analyzed by western blotting androgen-starved LNCaP cells.

22Rv1 cells [3] = test: PSA mRNA expression, real-time RT-PCR; assay type: cell-based; conditions: CMEM, 24 hr, dose response (FIG. 7A)
Method: (§2) In FIG. 7 LNCaP or 22Rv1 cells (A) are treated for 24 hr with DL3 and total RNA is extracted and analyzed by real-time RT-PCR. […] PSA mRNA in LNCaP cells is approximately 20 fold higher than that in 22Rv1 cells (FIG. 7A).

LNCaP-Flut-R cells [4] = test: Growth of Flut-refractory LNCaP cells, MTT; assay type: cell-based; conditions: 10 μM, 4 days, MTT (FIG. 2F)
Excerpt: as §1

LNCaP cells [5] = test: PSA and AR mRNA expression, RT-PCR; assay type: cell-based; conditions: 24 hr
Method: as §2

[6] = test system: LAPC-4, 22Rv1, PC-3, DU-145, PWE1-NB14, PWE1-NB26, PC-3AR cells; test: hsp70 expression in other prostate cancer cell lines, western blotting; assay type: cell-based
Method: Downregulation of hsp70 expression by DL3 is AR-dependent. Thus, the effects of DL3 on hsp70 expression are further investigated in several other prostate cancer cell lines, including LAPC-4 (wildtype AR), 22Rv1 (mutant AR), and AR-negative cell lines PC-3, DU-145, PWE1-NB14 (ATCC), and PWE1-NB26 (ATCC). […] In FIG. 10, LAPC-4 (in SMEM) and all other (in CMEM) cells are treated for 24 hr and analyzed by western blotting. LNCaP cells are transfected for 24 hr with hsp70 or its control vector, then treated for 24 hr. Thus, the above observation is further validated in PC-3 cells stably transfected with wildtype AR (PC-3AR). […] On the other hand, overexpression of hsp70 in LNCaP cells elevates endogenous AR protein levels (FIG. 10, panel C, right). […] Thus, the downregulation of hsp70 in prostate cancer cells by DL3 is in an AR-dependent event.

AR-AF2 (NTD deleted) = test: PSA promoter luciferase reporter in PC-3 cells co-transfected with AR-AF2; conditions: 20 μM, 24 hr
AR-AF1 (LBD deleted) = test: PSA promoter luciferase reporter in PC-3 cells co-transfected with AR-AF1; conditions: 20 μM, 24 hr
AR N/C interaction = target: T1, AR N/C interaction (Homo sapiens, UniProt P10275); test: AR N/C interaction, mammalian two-hybrid luciferase in HeLa cells; assay type: cell-based; conditions: 24 hr
T1 construct: the AR LBD and GAL4 DBD fusion protein (GAL4-LBD); expressed in transfected cells; host or cells: HeLa
T1 sequence (P10275 669-900 limits assumed): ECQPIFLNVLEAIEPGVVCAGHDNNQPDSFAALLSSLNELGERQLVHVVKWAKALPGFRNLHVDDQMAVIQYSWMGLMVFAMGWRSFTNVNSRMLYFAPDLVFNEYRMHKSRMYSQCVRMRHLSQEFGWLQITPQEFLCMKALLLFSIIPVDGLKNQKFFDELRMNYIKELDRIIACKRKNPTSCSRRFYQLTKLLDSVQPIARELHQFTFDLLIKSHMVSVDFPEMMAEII
Excerpt: This is done in a mammalian two-hybrid system, in which HeLa cells are cotransfected with vectors encoding the luciferase reporter driven by a tandem GAL4-responsive elements (GAL4-luc), the AR LBD and GAL4 DBD fusion protein (GAL4-LBD), and AR NTD and VP16 transactivation domain fusion protein (VP16-NTD).

22Rv1 cells [7] = test: Cellular PSA and AR protein, western blotting; assay type: cell-based; conditions: 24 hr
human PSA gene promoter = test: PSA promoter luciferase reporter (pGL3-PSA-luc) in LNCaP cells; conditions: 24 hr
LNCaP cells [8] = test: Cell cycle distribution and apoptosis, flow cytometry (propidium staining) and western blotting; assay type: cell-based
Method: To further appreciate the effects of DL3 on cell growth, cell cycle distribution is determined using the flow cytometry analysis. After incubation of LNCaP cells for 24 hr in SMEM, the majority of cells are in the G1 phase of cell cycle. […] The cell cycle distribution is examined by the propidium staining method. […] Thus, DL3 induces GI arrest of prostate cancer cells in short term culture.

LNCaP-Flut-R cells [9] = test: PSA secretion, ELISA of culture supernatant; assay type: cell-based; conditions: 1 nM DHT, 10 μM, 48 hr (FIG. 5D)
Method: (§3) For the following discussion, see FIG. 5, where androgen-starved LNCaP, LNCaP-Flut-R, or LNCaP-Nilut-R cells are plated into 96-well plates at 2×10^4 cells/wells in SMEM and treated for 48 hr. PSA in the culture supernatant is determined by using an enzyme-linked immunosorbent assay (ELISA) kit. PSA levels are normalized by cell density. […] The DHT-induced production of PSA is reduced by approximately 50% in cells treated with 5 μM of DL3 (FIG. 5B). […] PSA production is elevated in LNCaP-Flut-R and LNCaP-Nilut-R cells compared with that in their parental cells (FIG. 5D).

LNCaP-Nilut-R cells = test: PSA secretion, ELISA of culture supernatant; assay type: cell-based; conditions: 1 nM DHT, 10 μM, 48 hr (FIG. 5D)
Method: as §3

CC(C)(C)c1ccc(OCCSc2nc(=O)cc(N)[nH]2)cc1 [DL3, 6-amino-2-(2-4-tert-butyl-phenoxy)-ethylsulfanyl-1H-pyrimidin-4-one]
concentration at which inhibition of DHT-stimulated growth reaches a plateau ([1]; 1 nM DHT, 4 days): greater than 10 μM
effect on DHT-stimulated growth of LNCaP cells ([1]; 1 nM DHT, SMEM, 4 days, dose response): inhibits DHT-stimulated growth
growth of parental LNCaP cells ([1]; 10 μM, 4 days, MTT (FIG. 2F)): significantly inhibits growth
additive effect on growth of DL3 with Flut, Nilut or Bical ([1]; CMEM, 4 days, 5 μM DL3 and 10 μM of Flut, Nilut, or Bical): No significant additive effect
inhibition at 10 µM ([1]; read-out: inhibition of growth of LNCaP cells in the absence of DHT): 27%
inhibition at 10 µM ([1]; read-out: inhibition of growth of LNCaP cells in the presence of DHT): 82%
growth of LNCaP cells in the absence of DHT ([1]; no DHT, dose response): inhibits growth
nuclear localization of AR (AR): partially induce and enhance DHT-induced nuclear localization of AR
expression of AR protein (LNCaP cells [2]; 5 and 10 μM): not significantly altered
expression of AR protein (LNCaP cells [2]; 20 and 40 μM): reduced
DHT-induced PSA protein expression (LNCaP cells [2]; SMEM, Flut, Nilut, Bical at 20 μM): dose-dependently reduced
expression of PSA mRNA (22Rv1 cells [3]): inhibits the expression of PSA mRNA
growth of LNCaP-Flut-R cells (LNCaP-Flut-R cells [4]): significantly inhibits growth
DHT-stimulated PSA mRNA expression (LNCaP cells [5]; 20 μM, 1 nM DHT): abolishes
basal level of PSA mRNA (LNCaP cells [5]; 20 μM, androgen-starved): significantly reduces
expression of AR mRNA (LNCaP cells [5]; 1 nM DHT, 20 μM DL3 or Bical): partially downregulated
expression of PSA mRNA (LNCaP cells [5]; CMEM, dose response (FIG. 7A)): inhibits the expression of PSA mRNA
downregulation of hsp70 expression across AR-positive and AR-negative cell lines ([6]; LAPC-4, 22Rv1 vs AR-negative PC-3, DU-145, PWE1-NB14, PWE1-NB26, 24 hr): found in only the cells expressing AR
hsp70 expression in PC-3AR cells ([6]; PC-3 stably transfected with wildtype AR): downregulates hsp70 expression
activation of PSA promoter activity by AR-AF2 (AR-AF2 (NTD deleted)): does not inhibit
activation of PSA promoter activity by AR-AF1 (AR-AF1 (LBD deleted)): does not inhibit
DHT-induced N/C interaction (AR N/C interaction; 1 nM DHT, different concentrations): not significantly altered
luciferase activity (N/C interaction), compound alone (AR N/C interaction; no DHT): not significantly altered
expression of AR protein (22Rv1 cells [7]; 5 and 10 μM): not significantly altered
expression of AR protein (22Rv1 cells [7]; 20 and 40 μM): reduced
PSA protein expression (22Rv1 cells [7]; CMEM, increasing concentrations): inhibitory effects
basal PSA promoter activity (human PSA gene promoter; 20 μM alone): does not significantly alter
PSA promoter activity induced by DHT (human PSA gene promoter; 20 μM, 1 nM DHT): attenuates
increase of the portion of cells in G1 phase of cell cycle (LNCaP cells [8]; 24 hr, regardless of presence or absence of DHT): 15%
induction of apoptosis (LNCaP cells [8]; 24 hr, DL3 at 20 μM): does not induce apoptosis
survivin expression and caspase 3 cleavage (western blotting) (LNCaP cells [8]; data not shown): alter neither survivin expression nor caspase 3 cleavage
PSA production in LNCaP-Flut-R cells (LNCaP-Flut-R cells [9]): inhibits PSA production
PSA production in LNCaP-Nilut-R cells (LNCaP-Nilut-R cells): inhibits PSA production
